Data published in US6555124B1, “Use of (meth)acrylic acid copolymers to increase the permeability of mucous membranes” (BASF Aktiengesellschaft, priority 1996, dated 2003).

Experiments:
[1] = in vitro; details: human, Caco-2, pH 6
Description: (§1) This cell line forms on polycarbonate membranes a tissue assemblage which is very similar in appearance and protein composition to small intestinal […]. In the Transwell system (from Costar, Bodenheim, Germany), this artificial endothelial tissue separates two chambers, which are filled with medium, into the apical and the basolateral compartment. This design allows the permeation of a substance through the caco-2 tissue layer to be determined. […] An improvement in permeability is indicated by the reversible opening of the tight junctions.
(§2) Caco-2 cells were cultivated in DMEM (Dulbeccos Modified Eagle's Medium, from Gibco BRL, Eggenstein, Germany) with 10% FCS (fetal calf serum), 1% L-glutamine and 4.5 mg/ml glucose at 37° C. with 5% CO2 and 95% relative humidity. After trypsinization, the cells were spread at a density of 3×10^5 cells/cm^2 on transwell polycarbonate filters. Cells between the 30th and 50th passage were used to form monolayers. The monolayers were employed in the experiment 15-21 days (medium change every three days) after spreading of the cells.
(§3) Before the experiment, the caco-2 cell tissue was washed in the Transwell filter inserts with PBS (phosphate buffer saline). Then the apical compartment was filled with EBSS (Earl's buffered salt solution, pH 6) and the basolateral compartment was filled with DMEM. After addition of the polymer to be tested, which had been neutralized to pH 7, [Kollicoat® MAE 30D (ethyl acrylate/methacrylic acid 1:1, BASF), Eudragit® L100 (methacrylic acid/methyl methacrylate 1:1, Röhm), Eudragit® S100 (methacrylic acid/methyl methacrylate 1:2, Röhm)] in a concentration of 0.5-3% by weight and of the tracer substance into the apical compartment, samples were taken after 24 hours, and the permeation rate of the tracer substance was determined.
(§4) The experiments were analyzed by fluorescence spectrophotometry (Spex Fluorolog 1680: excitation wavelength: 488 nm, emission wavelength: 513 nm), and in the case of C22H32N6O4 by HPLC (column material: Vidac C-18; mobile phase: water/acetonitrile/0.1% trifluoroacetic acid; detection: 240 nm), the experimental results are compiled in Table 1. Measurements which were not done have been indicated by “−”.

[2] = test system: caco-2 cell tissue; test: in vitro
Description: as §1, §2, §3, §4

Structure (SMILES)	Papp A→B at 24 h [1]	Permeation rate ([2]; human, Caco-2, 24 h, pH 6)	Permeation rate ([2]; Control (no polymer), caco-2 monolayer, apical EBSS pH 6, samples after 24 hours)	Permeation rate ([2]; with Eudragit L 100 2.0% by weight (neutralized to pH 7) apical, 24 hours)	Permeation rate ([2]; with Eudragit S 100 2.0% by weight (neutralized to pH 7) apical, 24 hours)	Permeation rate ([2]; with Kollicoat MAE 30 D 0.5% by weight (neutralized to pH 7) apical, 24 hours)	Permeation rate ([2]; with Kollicoat MAE 30 D 1.0% by weight (neutralized to pH 7) apical, 24 hours)	Permeation rate ([2]; with Kollicoat MAE 30 D 1.5% by weight (neutralized to pH 7) apical, 24 hours)
N=C(N)c1ccc(CNC(=O)[C@@H]2CCCN2C(=O)[C@H](NCC(=O)O)C2CCCCC2)cn1 [C22H32N6O4, HOOC—CH2—(D)-Cha-Pro-NH-3-(6-Am)-Pico]	0.56 ×10⁻⁶ cm/s	56 (cm/sec) · 10^−8						
O=C(CCCCCNC(=O)CCCC[C@@H]1SC[C@@H]2NC(=O)N[C@@H]21)NCCCCCNC(=S)Nc1ccc2c(c1)C(=O)OC21c2ccc(O)cc2Oc2cc(O)ccc21 [Fluorescein-biotin, (biotin-amidocaproylamido)-(pentylthioureidyl)-fluorescein]			2.3 (cm/sec) · 10^−8	4.8 (cm/sec) · 10^−8	7.1 (cm/sec) · 10^−8	2.3 (cm/sec) · 10^−8	5.8 (cm/sec) · 10^−8	20 (cm/sec) · 10^−8
